Laboratory results published in paper PMC12719775, “Alexidine is a TAZ-specific small-molecule inhibitor that suppresses breast cancer invasion and metastasis” (iScience, 2025).

Columns and labels:
Type in all cases: biochemical
[1] = biological target: T1, TAZ-TEAD biosensor (FLAG-SmBiT-TAZ / His-LgBiT-TEAD1) (Homo sapiens, UniProt Q9GZV5); test: TR-FRET dose response (anti-FLAG-Tb / anti-His-D2), disruption of TAZ-TEAD1 interaction; details: HEK293T lysate, 18 h; protein-protein interaction inhibition
T1 construct: gene WWTR1; FLAG-SmBiT-TAZ aa 13-119 and His-LgBiT-TEAD1 aa 194-411 co-expressed in HEK293T; cell lysate; tags kept; with Transcriptional enhancer factor TEF-1

[2] = biological target: T2, GST-TAZ / Venus-Flag-TEAD1 (VF-TEAD1) (Homo sapiens, UniProt Q9GZV5); test: GST pull-down with western blot densitometry; details: HEK293T lysate, 18 h at 4 °C; protein-protein interaction inhibition
T2 construct: gene WWTR1; with Transcriptional enhancer factor TEF-1

TAZ = biological target: T3, TAZ (Homo sapiens, UniProt Q9GZV5); test: cellular thermal shift assay (CETSA) with western blot; details: 100 μM alexidine, 4 h at 4 °C, HEK293T lysate, heated 25-60 °C; destabilising shift
T3 construct: gene WWTR1; endogenous full-length TAZ in HEK293T freeze-thaw lysate (Methods: endogenous)
T3 sequence (Q9GZV5 whole entry): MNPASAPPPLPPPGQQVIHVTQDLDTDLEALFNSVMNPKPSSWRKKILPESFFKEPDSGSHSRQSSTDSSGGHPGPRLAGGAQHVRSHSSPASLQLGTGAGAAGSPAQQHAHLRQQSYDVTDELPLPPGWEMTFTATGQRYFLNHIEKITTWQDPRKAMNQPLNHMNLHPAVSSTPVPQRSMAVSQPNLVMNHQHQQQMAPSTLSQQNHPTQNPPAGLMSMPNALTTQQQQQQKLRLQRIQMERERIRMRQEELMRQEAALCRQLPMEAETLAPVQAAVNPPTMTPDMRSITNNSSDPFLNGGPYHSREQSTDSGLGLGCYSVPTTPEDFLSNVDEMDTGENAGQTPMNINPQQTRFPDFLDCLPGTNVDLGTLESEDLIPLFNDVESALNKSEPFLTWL

T2 sequence (Q9GZV5 whole entry): as above
T2 sequence (P28347 whole entry partner): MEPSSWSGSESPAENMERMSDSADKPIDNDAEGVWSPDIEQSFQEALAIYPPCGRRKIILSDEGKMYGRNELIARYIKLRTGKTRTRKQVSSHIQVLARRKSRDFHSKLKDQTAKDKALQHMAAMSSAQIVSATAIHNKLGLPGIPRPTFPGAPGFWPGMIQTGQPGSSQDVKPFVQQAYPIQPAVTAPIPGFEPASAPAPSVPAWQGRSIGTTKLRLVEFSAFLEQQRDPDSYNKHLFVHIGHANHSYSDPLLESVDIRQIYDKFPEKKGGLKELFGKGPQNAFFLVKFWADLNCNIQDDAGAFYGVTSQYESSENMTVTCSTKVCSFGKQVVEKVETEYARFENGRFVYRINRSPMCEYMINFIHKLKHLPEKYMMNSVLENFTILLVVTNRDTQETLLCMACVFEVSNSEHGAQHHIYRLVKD
T1 sequence (Q9GZV5 13-119): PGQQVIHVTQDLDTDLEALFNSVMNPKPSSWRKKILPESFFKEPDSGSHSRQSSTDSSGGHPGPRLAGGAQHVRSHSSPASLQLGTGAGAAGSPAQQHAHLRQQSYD
T1 sequence (P28347 209-426 partner): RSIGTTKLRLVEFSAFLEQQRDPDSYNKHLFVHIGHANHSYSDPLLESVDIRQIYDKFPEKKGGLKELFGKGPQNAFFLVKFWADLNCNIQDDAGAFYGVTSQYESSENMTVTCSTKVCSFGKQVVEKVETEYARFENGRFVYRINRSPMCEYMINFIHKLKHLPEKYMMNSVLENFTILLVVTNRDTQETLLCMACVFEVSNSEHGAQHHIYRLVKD

## CCCCC(CC)CNC(=N)NC(=N)NCCCCCCNC(=N)NC(=N)NCC(CC)CCCC (stereo not drawn) [alexidine]
[1]
  TR-FRET signal: alexidine disrupted TAZ- TEAD PPI in a dose-dependent manner
[2]
  % PPI signal: inhibition of GST-TAZ and VF-TEAD1 interaction was achieved by alexidine treatment
TAZ
  Tm: A reduction in TAZ rather than TEAD stability and melting temperature (Tm) was observed
